Measurements as given in ChEMBL document CHEMBL5344455, “Discovery and Characterization of Active CBP/EP300 Degraders Targeting the HAT Domain” (ACS Med Chem Lett, 2024).
Active and inactive are the calls of the source. The calls are words filed in the database; no cut-off is given here.

Columns and labels:
[1] = molecular target: T1, Protein cereblon/CREB-binding protein (Homo sapiens, UniProt Q92793+Q96SW2); assay: Protac activity at CRBN/CBP in human LP-1 cells assessed as protein remaining at 5 uM after 16 hrs by Western blotting analysis; assay type: cell-based
Target sequence in this assay (Q92793 2-2442 limits assumed): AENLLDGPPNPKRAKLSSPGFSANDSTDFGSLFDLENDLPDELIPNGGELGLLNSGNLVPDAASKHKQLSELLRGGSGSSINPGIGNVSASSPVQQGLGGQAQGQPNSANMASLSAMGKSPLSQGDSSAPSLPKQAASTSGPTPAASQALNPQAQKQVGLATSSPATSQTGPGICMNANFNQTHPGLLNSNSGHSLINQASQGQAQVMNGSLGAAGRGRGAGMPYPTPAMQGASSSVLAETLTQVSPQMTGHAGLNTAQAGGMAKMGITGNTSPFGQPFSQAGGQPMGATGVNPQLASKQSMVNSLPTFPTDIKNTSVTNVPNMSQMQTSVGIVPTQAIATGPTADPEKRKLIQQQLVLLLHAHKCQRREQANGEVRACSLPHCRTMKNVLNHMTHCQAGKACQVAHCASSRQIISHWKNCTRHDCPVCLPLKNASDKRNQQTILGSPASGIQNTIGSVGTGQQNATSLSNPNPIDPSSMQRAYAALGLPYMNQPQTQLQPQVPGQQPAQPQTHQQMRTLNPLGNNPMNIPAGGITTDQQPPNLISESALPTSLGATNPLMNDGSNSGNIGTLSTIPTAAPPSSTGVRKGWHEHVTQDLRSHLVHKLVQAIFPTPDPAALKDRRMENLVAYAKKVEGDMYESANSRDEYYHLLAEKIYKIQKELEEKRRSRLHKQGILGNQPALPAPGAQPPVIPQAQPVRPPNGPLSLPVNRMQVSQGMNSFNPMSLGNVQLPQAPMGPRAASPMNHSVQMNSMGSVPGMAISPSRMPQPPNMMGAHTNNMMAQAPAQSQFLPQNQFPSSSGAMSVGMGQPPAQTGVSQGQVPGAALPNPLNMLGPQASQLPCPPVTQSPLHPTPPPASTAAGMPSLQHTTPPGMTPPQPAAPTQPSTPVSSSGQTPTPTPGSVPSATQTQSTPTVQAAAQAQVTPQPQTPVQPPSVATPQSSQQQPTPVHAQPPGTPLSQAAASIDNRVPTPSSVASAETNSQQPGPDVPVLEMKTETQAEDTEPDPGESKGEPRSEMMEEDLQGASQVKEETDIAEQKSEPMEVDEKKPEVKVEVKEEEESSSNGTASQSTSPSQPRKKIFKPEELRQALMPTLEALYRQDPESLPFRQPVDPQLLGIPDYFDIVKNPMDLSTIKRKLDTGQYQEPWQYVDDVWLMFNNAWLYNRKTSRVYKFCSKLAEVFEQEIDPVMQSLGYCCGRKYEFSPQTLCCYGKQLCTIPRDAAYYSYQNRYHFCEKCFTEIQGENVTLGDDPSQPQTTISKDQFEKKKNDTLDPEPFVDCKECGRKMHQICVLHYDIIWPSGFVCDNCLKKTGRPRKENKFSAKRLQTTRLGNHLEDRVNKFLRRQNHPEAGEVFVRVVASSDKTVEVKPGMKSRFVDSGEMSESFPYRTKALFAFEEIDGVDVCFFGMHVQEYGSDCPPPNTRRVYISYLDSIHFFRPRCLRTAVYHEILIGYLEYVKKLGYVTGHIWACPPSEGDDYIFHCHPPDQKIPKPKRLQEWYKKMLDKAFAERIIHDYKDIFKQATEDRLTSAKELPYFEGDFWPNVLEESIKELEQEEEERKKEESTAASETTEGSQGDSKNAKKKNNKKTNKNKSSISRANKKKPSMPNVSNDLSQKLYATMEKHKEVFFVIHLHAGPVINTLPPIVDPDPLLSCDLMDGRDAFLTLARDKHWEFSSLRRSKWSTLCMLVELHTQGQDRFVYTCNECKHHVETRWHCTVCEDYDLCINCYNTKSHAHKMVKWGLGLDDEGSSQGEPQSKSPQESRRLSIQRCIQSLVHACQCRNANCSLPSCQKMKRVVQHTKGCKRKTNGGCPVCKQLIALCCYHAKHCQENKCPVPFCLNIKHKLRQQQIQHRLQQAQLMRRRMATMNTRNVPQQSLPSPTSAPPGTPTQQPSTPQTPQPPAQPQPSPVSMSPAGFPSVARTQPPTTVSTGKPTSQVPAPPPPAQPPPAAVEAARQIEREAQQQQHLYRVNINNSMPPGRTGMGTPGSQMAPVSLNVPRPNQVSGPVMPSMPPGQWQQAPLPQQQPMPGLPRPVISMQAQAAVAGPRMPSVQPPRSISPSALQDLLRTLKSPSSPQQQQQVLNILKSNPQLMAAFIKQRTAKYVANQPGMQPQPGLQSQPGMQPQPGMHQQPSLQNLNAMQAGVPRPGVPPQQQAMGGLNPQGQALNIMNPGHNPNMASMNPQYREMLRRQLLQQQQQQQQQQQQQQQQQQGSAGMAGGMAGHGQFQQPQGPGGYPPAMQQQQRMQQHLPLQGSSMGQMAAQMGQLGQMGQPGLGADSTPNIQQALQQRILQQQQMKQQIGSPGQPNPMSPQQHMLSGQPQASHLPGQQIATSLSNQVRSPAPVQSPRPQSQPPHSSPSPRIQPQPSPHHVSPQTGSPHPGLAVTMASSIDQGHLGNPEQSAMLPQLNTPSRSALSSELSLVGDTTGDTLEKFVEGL
Target sequence in this assay (Q96SW2 whole entry partner): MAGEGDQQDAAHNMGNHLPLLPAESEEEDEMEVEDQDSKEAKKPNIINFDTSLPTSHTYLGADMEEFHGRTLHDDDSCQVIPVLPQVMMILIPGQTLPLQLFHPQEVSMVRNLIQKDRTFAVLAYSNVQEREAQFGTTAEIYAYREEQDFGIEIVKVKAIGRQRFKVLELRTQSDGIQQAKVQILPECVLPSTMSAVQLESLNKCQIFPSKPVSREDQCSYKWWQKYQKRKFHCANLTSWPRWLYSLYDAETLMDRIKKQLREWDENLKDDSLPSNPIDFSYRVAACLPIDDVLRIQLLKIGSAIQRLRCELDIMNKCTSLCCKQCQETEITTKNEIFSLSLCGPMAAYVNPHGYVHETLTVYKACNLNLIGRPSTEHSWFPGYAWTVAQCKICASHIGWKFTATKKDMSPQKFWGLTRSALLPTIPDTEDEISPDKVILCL

[2] = molecular target: T2, Protein cereblon/Histone acetyltransferase p300 (Homo sapiens) (UniProt Q09472+Q96SW2); assay: Protac activity at CRBN/EP300 in human LP-1 cells assessed as protein remaining at 5 uM after 16 hrs by Western blotting analysis; assay type: cell-based
[3] = tested on: LP-1; assay: Protac activity at IAP/EP300 in human LP-1 cells assessed as protein remaining at 5 uM after 16 hrs by Western blotting analysis; assay type: cell-based
[4] = tested on: LP-1; assay: Protac activity at IAP/CBP in human LP-1 cells assessed as protein remaining at 5 uM after 16 hrs by Western blotting analysis; assay type: cell-based
[5] = tested on: LP-1; assay: Antiproliferative activity against human LP-1 cells assessed as growth inhibition incubated for 3 days by fluorescence based assay; assay type: functional; conditions: LP-1, 72 h, time 3 day
[6] = molecular target: von Hippel-Lindau disease tumor suppressor/CREB-binding protein (Homo sapiens) (UniProt Q92793+P40337); assay: Protac activity at VHL/CBP in human LP-1 cells assessed as protein remaining at 5 uM after 16 hrs by Western blotting analysis; assay type: cell-based
[7] = molecular target: von Hippel-Lindau disease tumor suppressor/Histone acetyltransferase p300 (Homo sapiens) (UniProt Q09472+P40337); assay: Protac activity at VHL/EP300 in human LP-1 cells assessed as protein remaining at 5 uM after 16 hrs by Western blotting analysis; assay type: cell-based
[8] = tested on: RPMI-8226; assay: Antiproliferative activity against human RPMI-8226 cells; assay type: functional, cell-based
[9] = molecular target: T1, Protein cereblon/CREB-binding protein; assay: Protac activity at CRBN/CBP degradation in human LP-1 cells at 5 uM preincubated with CPI-1612 for 1 hr followed by compound addition and measured after 16 hrs by Western blotting analysis; assay type: cell-based
Target sequence in this assay (Q92793 2-2442 limits assumed): as the sequence (Q92793 2-2442 limits assumed) above
Target sequence in this assay (Q96SW2 whole entry partner): as the sequence (Q96SW2 whole entry partner) above

[10] = molecular target: T1, Protein cereblon/CREB-binding protein; assay: Protac activity at CRBN/CBP degradation in human LP-1 cells at 5 uM preincubated with pomalidomide for 1 hr followed by compound addition and measured after 16 hrs by Western blotting analysis; assay type: cell-based
Target sequence in this assay (Q92793 2-2442 limits assumed): as the sequence (Q92793 2-2442 limits assumed) above
Target sequence in this assay (Q96SW2 whole entry partner): as the sequence (Q96SW2 whole entry partner) above

[11] = molecular target: T1, Protein cereblon/CREB-binding protein; assay: Protac activity at CRBN/CBP in human LP-1 cells at 5 uM after 8 to 48 hrs by Western blotting analysis; assay type: cell-based; conditions: time 8-48 hrs
Target sequence in this assay (Q92793 2-2442 limits assumed): as the sequence (Q92793 2-2442 limits assumed) above
Target sequence in this assay (Q96SW2 whole entry partner): as the sequence (Q96SW2 whole entry partner) above

[12] = tested on: CCRF-CEM; assay: Antiproliferative activity against human CCRF-CEM cells; assay type: functional, cell-based
[13] = tested on: MOLT-4; assay: Antiproliferative activity against human MOLT-4 cells; assay type: functional, cell-based
[14] = tested on: HL-60(TB); assay: Antiproliferative activity against human HL-60(TB) cells; assay type: functional, cell-based
[15] = molecular target: T1, Protein cereblon/CREB-binding protein; assay: Protac activity at CRBN/CBP degradation in human LP-1 cells at 5 uM preincubated with MG-132 for 1 hr followed by compound addition and measured after 16 hrs by Western blotting analysis; assay type: cell-based
Target sequence in this assay (Q92793 2-2442 limits assumed): as the sequence (Q92793 2-2442 limits assumed) above
Target sequence in this assay (Q96SW2 whole entry partner): as the sequence (Q96SW2 whole entry partner) above

[16] = tested on: SR; assay: Antiproliferative activity against human SR cells; assay type: functional, cell-based
[17] = molecular target: T1, Protein cereblon/CREB-binding protein; assay: Protac activity at CRBN/CBP degradation in human LP-1 cells assessed as induction of ternary complex formation by measuring fluorescent foci at 2 uM after 6 hrs by fluorescence microscopic analysis; assay type: cell-based
[18] = molecular target: T1, Protein cereblon/CREB-binding protein; assay: Protac activity at CRBN/CBP in human MM1.S cells at 5 uM after 16 hrs by Western blotting analysis; assay type: cell-based
Target sequence in this assay (Q92793 2-2442 limits assumed): as the sequence (Q92793 2-2442 limits assumed) above
Target sequence in this assay (Q96SW2 whole entry partner): as the sequence (Q96SW2 whole entry partner) above

[19] = molecular target: T1, Protein cereblon/CREB-binding protein; assay: Protac activity at CRBN/CBP in human LP-1 cells after 16 hrs by Western blotting analysis; assay type: cell-based
[20] = tested on: K562; assay: Antiproliferative activity against human K562 cells; assay type: functional, cell-based
[21] = molecular target: T1, Protein cereblon/CREB-binding protein; assay: Protac activity at CRBN/CBP in human LP-1 cells at 5 uM after 16 hrs by Western blotting analysis; assay type: cell-based
[22] = molecular target: T2, Protein cereblon/Histone acetyltransferase p300 (Homo sapiens); assay: Protac activity at CRBN/EP300 in human MM1.S cells at 5 uM after 16 hrs by Western blotting analysis; assay type: cell-based
[23] = molecular target: T2, Protein cereblon/Histone acetyltransferase p300 (Homo sapiens); assay: Protac activity at CRBN/EP300 in human LP-1 cells at 5 uM after 16 hrs by Western blotting analysis; assay type: cell-based
[24] = molecular target: CREB-binding protein (Homo sapiens, UniProt Q92793); assay: Inhibition of CBP (unknown origin) by radiometric assay

Compound: C[C@H](CN[C@@H](C(=O)Nc1ccc(-c2cnn(CCCC(=O)NCCOCCOCCOCCOCCOCCOCCOCCNc3cccc4c3C(=O)N(C3CCC(=O)NC3=O)C4=O)c2)cn1)c1ccccc1)c1ccc(C#N)cc1 (some centres not stated)
- Activity [1]: Active
- Activity [2]: Active

Compound: C[C@H](CN[C@@H](C(=O)Nc1ccc(-c2cnn(CCCC(=O)NCCOCCOCCOCCOCCOCCNc3cccc4c3C(=O)N(C3CCC(=O)NC3=O)C4=O)c2)cn1)c1ccccc1)c1ccc(C#N)cc1 (some centres not stated)
- Activity [1]: Active
- Activity [2]: Active

Compound: CN[C@@H](C)C(=O)N[C@H](C(=O)N1C[C@@H](NC(=O)CCOCCOCCNC(=O)CCCn2cc(-c3ccc(NC(=O)[C@H](NC[C@@H](C)c4ccc(C#N)cc4)c4ccccc4)nc3)cn2)C[C@H]1C(=O)Nc1c(F)cccc1F)C(C)(C)C
- Activity [3]: 93%
- Activity [4]: 87%
- GI50 [5]: > 10000 nM

Compound: Cc1ncsc1-c1ccc(CNC(=O)[C@@H]2C[C@@H](O)CN2C(=O)[C@@H](NC(=O)CCCCCCCNC(=O)CCCn2cc(-c3ccc(NC(=O)[C@H](NC[C@@H](C)c4ccc(C#N)cc4)c4ccccc4)nc3)cn2)C(C)(C)C)cc1
- Activity [6]: > 95%
- Activity [7]: > 95%
- GI50 [5]: 4700 nM

Compound: C[C@H](CN[C@@H](C(=O)Nc1ccc(-c2cnn(CCCC(=O)NCCOCCOCCOCCOCCOCCOCCNc3cccc4c3C(=O)N(C3CCC(=O)NC3=O)C4=O)c2)cn1)c1ccccc1)c1ccc(C#N)cc1 (some centres not stated)
- Activity [8]: Active
- Activity [9]: Active
- Activity [10]: Active
- Activity [11]: Active
- Activity [12]: Active
- Activity [13]: Active
- Activity [14]: Active
- Activity [1]: Active
- Activity [15]: Active
- Activity [16]: Active
- EC50 [17]: 1200 nM
- Activity [2]: Active
- Activity [18]: Active
- EC50 [19]: 1300 nM
- Activity [20]: Active

Compound: C[C@H](N(Cc1ccc(F)cc1)C(=O)CN1C(=O)O[C@@]2(CCc3cc(NC(=O)CCCCCCCCCCCNc4ccc5c(c4)C(=O)N(C4CCC(=O)NC4=O)C5=O)ccc32)C1=O)C(F)(F)F (some centres not stated)
- Activity [21]: inactive
- Activity [22]: inactive
- Activity [18]: inactive
- Activity [23]: inactive

Compound: Cc1ncsc1-c1ccc(CNC(=O)[C@H]2C[C@H](O)CN2C(=O)[C@H](NC(=O)CCOCCOCCOCCNC(=O)CCCn2cc(-c3ccc(NC(=O)[C@H](NC[C@@H](C)c4ccc(C#N)cc4)c4ccccc4)nc3)cn2)C(C)(C)C)cc1
- Activity [6]: > 95%
- Activity [7]: 89%
- GI50 [5]: 2200 nM

Compound: C[C@H](CN[C@@H](C(=O)Nc1ccc(-c2cnn(CCCC(=O)NCCOCCOCCOCCOCCOCCOCCNc3cccc4c3C(=O)N(C3CCC(=O)N(C)C3=O)C4=O)c2)cn1)c1ccccc1)c1ccc(C#N)cc1 (some centres not stated)
- Activity [17]: inactive

Compound: CCOCCNC(=O)CCn1cc(-c2ccc(NC(=O)C(NCC(C)c3ccc(C#N)cc3)c3ccccc3)nc2)cn1 (configuration not stated)
- IC50 [24]: 1870 nM

Compound: Cc1ncsc1-c1ccc(CNC(=O)[C@@H]2C[C@@H](O)CN2C(=O)[C@@H](NC(=O)COCCOCCNC(=O)CCCn2cc(-c3ccc(NC(=O)[C@H](NC[C@@H](C)c4ccc(C#N)cc4)c4ccccc4)nc3)cn2)C(C)(C)C)cc1
- Activity [6]: > 95%
- Activity [7]: > 95%
- GI50 [5]: 1000 nM

Compound: C[C@H](CN[C@@H](C(=O)Nc1ccc(-c2cnn(CCCC(=O)NCCCCCCCCNc3ccc4c(c3)C(=O)N(C3CCC(=O)NC3=O)C4=O)c2)cn1)c1ccccc1)c1ccc(C#N)cc1 (some centres not stated)
- Activity [1]: > 95%
- Activity [2]: 95%
- GI50 [5]: 260 nM

Compound: C[C@H](CN[C@@H](C(=O)Nc1ccc(-c2cnn(CCCC(=O)NCCOCCOCCNc3cccc4c3C(=O)N(C3CCC(=O)NC3=O)C4=O)c2)cn1)c1ccccc1)c1ccc(C#N)cc1 (some centres not stated)
- Activity [1]: > 95%
- Activity [2]: 79%
- GI50 [5]: 330 nM

Compound: C[C@H](CN[C@@H](C(=O)Nc1ccc(-c2cnn(CCCC(=O)NCCCCCCCCNc3cccc4c3C(=O)N(C3CCC(=O)NC3=O)C4=O)c2)cn1)c1ccccc1)c1ccc(C#N)cc1 (some centres not stated)
- Activity [1]: 87%
- Activity [2]: 79%
- GI50 [5]: 470 nM

Compound: CN[C@@H](C)C(=O)N[C@H](C(=O)N1C[C@@H](NC(=O)CCCCCCCNC(=O)CCCn2cc(-c3ccc(NC(=O)[C@H](NC[C@@H](C)c4ccc(C#N)cc4)c4ccccc4)nc3)cn2)C[C@H]1C(=O)Nc1c(F)cccc1F)C(C)(C)C
- Activity [3]: > 95%
- Activity [4]: > 95%
- GI50 [5]: 2300 nM

Compound: C[C@H](CN[C@@H](C(=O)Nc1ccc(-c2cnn(CCCC(=O)NCCOCCOCCOCCOCCNc3cccc4c3C(=O)N(C3CCC(=O)NC3=O)C4=O)c2)cn1)c1ccccc1)c1ccc(C#N)cc1 (some centres not stated)
- Activity [1]: Active
- Activity [2]: Active

Compound: COCCNC(=O)CCCCn1cc(-c2ccc(NC(=O)C(NCC(C)c3ccc(C#N)cc3)c3ccccc3)nc2)cn1 (configuration not stated)
- IC50 [24]: 819 nM

Compound: C[C@H](CN[C@@H](C(=O)Nc1ccc(-c2cnn(C)c2)cn1)c1ccccc1)c1ccc(C#N)cc1
- IC50 [24]: 116 nM
- GI50 [5]: 5 nM

Compound: CCOCCNC(=O)CCCn1cc(-c2ccc(NC(=O)C(NCC(C)c3ccc(C#N)cc3)c3ccccc3)nc2)cn1 (configuration not stated)
- IC50 [24]: 1010 nM

Compound: Nc1cccc2c1C(=O)N(C1CCC(=O)NC1=O)C2=O (configuration not stated) [POMALIDOMIDE]
- GI50 [5]: > 10000 nM

Compound: C[C@H](CN[C@@H](C(=O)Nc1ccc(-c2cnn(CCCC(=O)NCCOCCOCCOCCNc3cccc4c3C(=O)N(C3CCC(=O)NC3=O)C4=O)c2)cn1)c1ccccc1)c1ccc(C#N)cc1 (some centres not stated)
- Activity [1]: > 95%
- Activity [2]: 76%
- GI50 [5]: 500 nM

Compound: CN[C@@H](C)C(=O)N[C@H](C(=O)N1C[C@@H](NC(=O)CCOCCOCCOCCNC(=O)CCCn2cc(-c3ccc(NC(=O)[C@H](NC[C@@H](C)c4ccc(C#N)cc4)c4ccccc4)nc3)cn2)C[C@H]1C(=O)Nc1c(F)cccc1F)C(C)(C)C
- Activity [3]: > 95%
- Activity [4]: > 95%
- GI50 [5]: 500 nM
